{"source": "patent US12390487B2", "about": "“Antiseptic skin prep composition” (Solventum Intellectual Properties Company, priority 2019, dated 2025)", "assay": "Solubility of dye in alcohol systems", "type": "physicochemical", "text": "It was observed that, Ponceau 4R Dye precipitated on the second day. The others (Brilliant Blue, D&C Green, Carmoisine) were stable over 30 days at room temperature with no precipitation observed. PVPK 120 postpones the precipitation of anionic dyes with CHG to various degrees. It was observed that the azo dye structure with 3 sulphonate groups precipitated out of solution quicker.", "data": [{"compound": "O=C1OC2(c3ccccc31)c1cc(I)c(O)c(I)c1Oc1c2cc(I)c(O)c1I", "note": "[Erythrosine]", "values": [{"measurement": "Solubility in alcohol systems", "result": "good solubility"}]}]}
